This test deals with T1, USP30 (Homo sapiens, UniProt Q70CQ3).
T1 construct: We next determined cellular engagement of endogenous USP30 with IMP-2587 or IMP-2586; endogenous in cells; host or cells: HEK293T
T1 sequence (Q70CQ3 1-517): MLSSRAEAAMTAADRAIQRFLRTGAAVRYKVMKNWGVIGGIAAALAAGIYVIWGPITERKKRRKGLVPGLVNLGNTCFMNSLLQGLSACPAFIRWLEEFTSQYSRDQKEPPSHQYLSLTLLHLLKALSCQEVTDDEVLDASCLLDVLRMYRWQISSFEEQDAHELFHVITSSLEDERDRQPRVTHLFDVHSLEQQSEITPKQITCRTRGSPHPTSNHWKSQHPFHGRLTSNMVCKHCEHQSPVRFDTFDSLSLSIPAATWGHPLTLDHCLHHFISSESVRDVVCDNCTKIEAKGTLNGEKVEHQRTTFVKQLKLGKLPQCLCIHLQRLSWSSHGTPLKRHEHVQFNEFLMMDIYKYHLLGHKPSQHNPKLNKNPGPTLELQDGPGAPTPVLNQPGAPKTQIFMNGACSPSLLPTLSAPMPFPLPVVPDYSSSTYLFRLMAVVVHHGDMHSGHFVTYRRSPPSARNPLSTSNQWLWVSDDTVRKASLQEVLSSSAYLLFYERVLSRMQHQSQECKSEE
Put plainly: ABPP chemical proteomics (LC-MS/MS) in HEK293T cells. As to conditions: for Difference (log2 fold change of enrichment): USP30; for probe concentration for detection of USP30 activity in intact cells: 10 min incubation. It counts as cell-based. In outline: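 Proteome-wide selectivity was profiled by competitive ABPP. Cells received […] and then activity-based probe for 1 h at 37 °C. Lysates were ligated to biotin capture tags, affinity-enriched and analysed by mass spectrometry.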

Consider `N#CN1CC[C@H](CC(=O)Nc2cc(-c3cccc(Cl)c3)no2)C1` [compound 1, reference compound], for which the “Difference (log2 fold change of enrichment)” value (compound 1 out-competition with IMP-2587 labelling, HEK293T (Table S3, Fig.5b)) was -1.82.

For the compound `C#Cc1cccc(-c2cc(NC(=O)CC3CCN(C#N)C3)on2)c1` (centres unmarked) [IMP-2587], the “probe concentration for detection of USP30 activity in intact cells” value was 30 nM. Consider `N#CN1CC[C@@H](NC(=O)c2cc(-c3ccccc3Oc3ccc(N=[N+]=[N-])cc3)n[nH]2)C1` [IMP-2586], for which the “probe concentration for detection of USP30 activity in intact cells” value came out at 30 nM. Further, the “Difference (log2 fold change of enrichment)” value (IMP-2586 labelling vs DMSO, 30 nM, 10 min, HEK293T (Table S4, Fig.5c)) is 4.80.

Consider `N#CN1CC[C@@H](NC(=O)c2cc(-c3ccccc3Oc3ccccc3)n[nH]2)C1` [compound 3, reference compound], for which the “Difference (log2 fold change of enrichment)” value (compound 3 out-competition with IMP-2586 labelling, HEK293T (Table S5, Fig.5d)) is recorded as -4.18.

(Values after publication PMC11078216, “Discovery of potent and selective activity-based probes (ABPs) for the deubiquitinating enzyme USP30” (RSC Chemical Biology, 2024).)
